Experimental data reported in patent US10597388B2, “Pyridazinone herbicides” (FMC CORPORATION, priority 2014, dated 2020).

Legend:
Format in all cases: in vivo
[1] = tested on: barley, winter (winter barley, Hordeum vulgare); assay: Test D controlled growth environment herbicide test, pre- and postemergence
Outline: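 Pre-emergence: seeds sown in silt loam soil were sprayed with compound in a non-phytotoxic solvent mix containing surfactant. Post-emergence: plants at 2 to 18 cm (1- to 4-leaf stage) in peat moss/vermiculite medium got the same formulation. Visual 0–100 rating versus controls after 14 to 21 d.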

[2] = tested on: johnsongrass (Sorghum halepense); assay: Test E greenhouse herbicide test, pre- and postemergence; conditions: Preemergence
Outline: (§1)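 Visual rating vs untreated controls, 0 = no effect, 100 = complete control, after 14–21 d greenhouse. Pre: seeded silt loam treated with surfactant-containing solvent formulation. Post: 1–4-leaf plants (2–18 cm) in peat/vermiculite medium.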

[3] = tested on: nightshade (eastern black nightshade, Solanum ptycanthum); assay: as above; conditions: Preemergence
Outline: as §1

[4] = tested on: surinam grass (Brachiaria decumbens); assay: as above; conditions: Preemergence
Outline: as §1

[5] = tested on: dayflower (Virginia (VA) dayflower, Commelina virginica); assay: as above
Outline: as §1

[6] = tested on: sandbur (southem sandbur, Cenchrus echinatus); assay: as above
Outline: as §1

[7] = tested on: arrowleaf sida (Sida rhombifolia); assay: as above
Outline: as §1

[8] = tested on: lambsquarters (Chenopodium album); assay: as above; conditions: Preemergence
Outline: as §1

soybean (Glycine max) = assay: as above
Outline: as §1

[9] = tested on: waterhemp_RES1 (ALS & Triazine resistant common waterhemp, Amaranthus rudis); assay: Test E greenhouse herbicide test, postemergence
Outline: (§2)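 Visual injury scored 0 (no effect) to 100 (complete control) versus untreated plants, 14 to 21 d after treatment in the greenhouse. Plants were treated postemergence at 1- to 4-leaf stage, 2–18 cm height, in peat-moss/vermiculite medium.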

[10] = tested on: waterhemp_RES2 (ALS & HPPD resistant common waterhemp, Amaranthus rudis); assay: Test E greenhouse herbicide test, postemergence
Outline: as §2

[11] = 31 g ai/ha, scale 0 to 100, 0 no effect, 100 complete control
[12] = 250 g ai/ha, visual, scale 0 no effect to 100 complete control
[13] = 125 g ai/ha, scale 0 to 100 (0 no effect, 100 complete control)
[14] = 62 g ai/ha, Postemergence, scale 0 to 100 (0 no effect, 100 complete control)
[15] = 62 g ai/ha, Preemergence, scale 0 to 100 (0 no effect, 100 complete control)
[16] = 125 g ai/ha, Postemergence, scale 0 to 100 (0 no effect, 100 complete control)
[17] = 125 g ai/ha, Preemergence, scale 0 to 100 (0 no effect, 100 complete control)
[18] = 250 g ai/ha, Postemergence, scale 0 to 100 (0 no effect, 100 complete control)
[19] = Postemergence, 31 g ai/ha, visual, scale 0 no effect to 100 complete control
[20] = Preemergence, 31 g ai/ha, scale 0 to 100, 0 no effect, 100 complete control
[21] = Preemergence, 250 g ai/ha, visual, scale 0 no effect to 100 complete control
[22] = 31 g ai/ha, visual, scale 0 no effect to 100 complete control
[23] = 250 g ai/ha, scale 0 to 100 (0 no effect, 100 complete control)

CC(=O)Oc1c(C)nn(C)c(=O)c1-c1c(C)cc(C)c2ccccc12 [Compound 153]
Barley, Winter plant response rating ([1]; Postemergence, 31 g ai/ha, scale 0 to 100 (0 no effect, 100 complete control)): 0 | Plant response rating, Barley, Winter ([1]; Postemergence, 125 g ai/ha, visual rating on scale 0 (no effect) to 100 (complete control), 14 to 21 d): 10 | Plant response rating, Barley, Winter ([1]; Postemergence, 250 g ai/ha, scale 0 to 100 (0 no effect, 100 complete control)): 25 | Plant response rating (scale of 0 to 100), Barley, Winter ([1]; Preemergence, 31 g ai/ha): 0 | Plant response rating, Barley, Winter ([1]; Preemergence, 62 g ai/ha, scale 0 to 100 (0 no effect, 100 complete control)): 10 | Plant response rating, Barley, Winter ([1]; Preemergence, 125 g ai/ha, scale 0 to 100 (0 no effect, 100 complete control)): 25 | Plant response rating, Barley, Winter ([1]; Preemergence, 250 g ai/ha, scale 0 to 100 (0 no effect, 100 complete control)): 40 | Plant response rating, Barley, Winter ([1]; postemergence, 62 g ai/ha, scale 0 to 100, 0 no effect, 100 complete control): 5 | Plant response rating, Johnsongrass [2, 11]: 0 | Plant response rating, Johnsongrass [2, 12]: 60 | Plant response rating, Nightshade [3, 13]: 95 | Plant response rating, Nightshade [3, 11]: 70 | Plant response rating, Nightshade [3, 12]: 100 | Plant response rating, Surinam Grass [4, 13]: 90 | Plant response rating, Surinam Grass [4, 11]: 50 | Plant response rating, Surinam Grass [4, 12]: 100 | Plant response rating, Dayflower, VA [5, 14]: 90 | Plant response rating, Dayflower, VA [5, 15]: 85 | Plant response rating, Dayflower, VA [5, 16]: 90 | Plant response rating, Dayflower, VA [5, 17]: 90 | Plant response rating, Dayflower, VA [5, 18]: 95 | Plant response rating, Dayflower, VA [5, 19]: 85 | Plant response rating, Dayflower, VA [5, 20]: 80 | Plant response rating, Dayflower, VA [5, 21]: 90 | Plant response rating, Sandbur [6, 16]: 60 | Plant response rating, Sandbur [6, 17]: 85 | Plant response rating, Sandbur [6, 18]: 70 | Plant response rating, Sandbur [6, 19]: 50 | Plant response rating, Sandbur [6, 20]: 80 | Plant response rating, Sandbur [6, 21]: 90 | Plant response rating, Arrowleaf Sida [7, 14]: 50 | Plant response rating, Arrowleaf Sida [7, 15]: 70 | Plant response rating, Arrowleaf Sida [7, 16]: 40 | Plant response rating, Arrowleaf Sida [7, 17]: 60 | Plant response rating, Arrowleaf Sida [7, 18]: 40 | Plant response rating, Arrowleaf Sida [7, 19]: 40 | Plant response rating, Arrowleaf Sida [7, 20]: 50 | Plant response rating, Arrowleaf Sida [7, 21]: 75 | Plant response rating, Lambsquarters [8, 13]: 100 | Plant response rating, Lambsquarters [8, 11]: 100 | Plant response rating, Lambsquarters [8, 12]: 100 | Plant response rating, Soybean (soybean (Glycine max); [16]): 10 | Plant response rating, Soybean (soybean (Glycine max); [17]): 30 | Plant response rating, Soybean (soybean (Glycine max); [18]): 25 | Plant response rating, Soybean (soybean (Glycine max); [19]): 0 | Plant response rating, Soybean (soybean (Glycine max); [20]): 30 | Plant response rating, Waterhemp_RES1 [9, 22]: 50 | Plant response rating, Waterhemp_RES1 [9, 13]: 50 | Plant response rating, Waterhemp_RES1 [9, 23]: 60 | Plant response rating, Waterhemp_RES2 [10, 22]: 10 | Plant response rating, Waterhemp_RES2 [10, 13]: 30 | Plant response rating, Waterhemp_RES2 [10, 23]: 50
